Consider eight molecules from patent US10889611B2, “Sialyltransferase inhibitors and uses thereof” (Academia Sinica, priority 2015, dated 2021).

Each structure is given as a SMILES string. “And” between values parts separate entries of the source, which are not always exact repeats. Equal values may be shown once. Some results are limits rather than exact numbers.

For data set [1], the target named is T1, α2,6(N)-sialyltransferases ST6GALI (Homo sapiens, UniProt P15907).
T1 construct: purchased RnDSystems.com (R&D Systems)
T1 sequence (P15907 1-406): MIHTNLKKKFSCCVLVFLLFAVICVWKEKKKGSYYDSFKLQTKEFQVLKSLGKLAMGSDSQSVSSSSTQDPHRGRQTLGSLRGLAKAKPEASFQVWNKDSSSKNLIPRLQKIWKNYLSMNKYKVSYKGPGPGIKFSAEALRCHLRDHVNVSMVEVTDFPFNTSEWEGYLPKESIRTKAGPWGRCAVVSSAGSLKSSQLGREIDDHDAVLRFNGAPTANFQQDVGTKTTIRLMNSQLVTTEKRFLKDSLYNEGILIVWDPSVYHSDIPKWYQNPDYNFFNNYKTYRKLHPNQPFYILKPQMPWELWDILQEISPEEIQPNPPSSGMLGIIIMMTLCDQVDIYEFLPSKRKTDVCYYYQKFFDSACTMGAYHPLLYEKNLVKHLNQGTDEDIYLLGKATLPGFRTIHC
The data set can be described thus: Sialyltransferase inhibition assay, ST6GALI (reverse-phase HPLC). The data set is classed as biochemical. Conditions: for IC50: IC50 (μM) ST6GALI, α2,6-N-link. On the procedure: (§1) The enzymes analyzed in the present study included rat ST3Gal(I), rat ST3Gal(III), and human ST6Gal(I). Rat ST3Gal(I) and rat ST3Gal(Ill), were purchased from Calbiochem®, while human ST6Gal(I) was purchased from RnDSystems.com.
(§2) Sialyltransferase inhibition assay (α2,6-N-ST) was performed as follows: Sialyltransferase activity was determined by measuring the level of the end product of sialylated saccharides with reverse-phase HPLC. The assay mixtures contained the following components: 200 mM MES buffer; 100 mM NaCl; 0.5 mM EDTA; 0.01% Triton X-100; 1.4 mU ST6GALI; 25 μM Galβ1-4GlcNAc; 1 mM CMP-Neu5Ac and different concentration of Sialyltransferase inhibitors to a total volume of 50 μl. The assay mixture was incubated at 37° C. for 15 mins and then quenched by heating up to 101° C. for 10 mins. The sialylated product is resolved with reversed-phase HPLC. Kinetic data were obtained by fitting the initial rate data to the nonlinear regression equation.
(§3) Effects of the present compounds on the activity of sialyltransferase, including α2,3(N)-sialyltransferase ST3GALIII, α2,6(N)-sialyltransferases ST6GALI, and α2,3(O)-sialyltransferase ST3GALI, were determined in accordance with procedures described in the “Materials and Methods” section, and results are summarized in Table 1.

For data set [2], the target named is T2, α2,3(O)-sialyltransferase ST3GALI (Rattus norvegicus, UniProt Q6H8N0).
T2 construct: purchased Calbiochem
T2 sequence (Q6H8N0 1-340): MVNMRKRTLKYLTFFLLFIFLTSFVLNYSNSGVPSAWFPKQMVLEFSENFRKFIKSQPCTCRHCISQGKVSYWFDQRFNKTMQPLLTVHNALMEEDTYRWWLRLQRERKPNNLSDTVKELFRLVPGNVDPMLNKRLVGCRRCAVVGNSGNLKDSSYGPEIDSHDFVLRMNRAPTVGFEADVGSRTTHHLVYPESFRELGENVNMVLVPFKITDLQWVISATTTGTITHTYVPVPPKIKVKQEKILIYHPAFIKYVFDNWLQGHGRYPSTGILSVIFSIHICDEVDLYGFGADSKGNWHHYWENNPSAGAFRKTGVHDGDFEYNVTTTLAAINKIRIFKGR
Nature of the data set: Sialyltransferase inhibition assay, ST3GALI (reverse-phase HPLC). The data set is classed as biochemical. Conditions: read-out: ST3GALI inhibition percentage; for inhibition at 500 µM: measured at 500 μM. On the procedure: as §1
as §2, with “mU ST3GALI; 2.5 mM T-antigen;” for “mU ST6GALI; 25 μM Galβ1-4GlcNAc;”, “to 101′C” for “to 101° C.”, “product was” for “product is”, “resolved by” for “resolved with”
as §3

For data set [3], the target named is T3, α2,3(N)-sialyltransferase ST3GALIII (Rattus norvegicus, UniProt Q02734).
T3 construct: purchased Calbiochem
T3 sequence (Q02734 1-374): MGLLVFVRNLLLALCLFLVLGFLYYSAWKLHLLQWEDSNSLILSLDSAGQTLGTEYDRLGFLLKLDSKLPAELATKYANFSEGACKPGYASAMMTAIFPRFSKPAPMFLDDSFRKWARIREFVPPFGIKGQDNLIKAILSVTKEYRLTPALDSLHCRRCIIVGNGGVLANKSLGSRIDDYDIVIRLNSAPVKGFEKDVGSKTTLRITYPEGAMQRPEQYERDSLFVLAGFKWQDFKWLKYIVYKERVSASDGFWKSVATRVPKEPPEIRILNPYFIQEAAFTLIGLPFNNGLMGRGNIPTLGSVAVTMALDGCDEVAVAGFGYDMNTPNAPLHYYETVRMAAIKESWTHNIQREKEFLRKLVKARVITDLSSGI
The data set can be described thus: Sialyltransferase activity assay, ST3GALIII. The data set is classed as biochemical. Conditions: IC50 (μM) ST3GALIII, α2,3-N-link.

Regarding `C[C@H](CCC(=O)OCCN=[N+]=[N-])C1CC[C@H]2[C@@H]3CC[C@@H]4C[C@H](OC(=O)[C@H](CC(=O)O)NC(=O)c5ccc([N+](=O)[O-])cc5)CC[C@]4(C)[C@H]3CC[C@]12C` (stereo partly drawn) [Compound 6, (3S)-4-(((3R,5R,8R,9S,10S,13R,14S)-17-((R)-5-(2-azidoethoxy)-5-oxopentan-2-yl)-10,13-dimethylhexadecahydro-1H-cyclopenta[a]phenanthren-3-yl)oxy)-3-(4-nitrobenzamido)-4-oxobutanoic acid], the melting point (as a rule, the temperature, or range, at which the solid turns liquid) lay within 61 to 62 °C. In data set [1], the “selectivity ratio ST3GALI/ST6GALI” value is greater than 70 and half-maximal inhibition (IC50) required 7.21 ± 0.1 µM. Moreover, the inhibition (in general, the drop in the measured response relative to a control, in per cent) at 500 µM in data set [2] is 0%.

Molecule `C[C@H](CCC(=O)OCCOCCOCCN=[N+]=[N-])C1CC[C@H]2[C@@H]3CC[C@@H]4C[C@H](OC(=O)[C@H](CC(=O)O)NC(=O)c5ccc([N+](=O)[O-])cc5)CC[C@]4(C)[C@H]3CC[C@]12C` (stereo partly drawn) [Compound 8, (3S)-4-(((3R,5R,8R,9S,10S,13R,14S)-17-((R)-5-(2-(2-(2-azidoethoxy)ethoxy)ethoxy)-5-oxopentan-2-yl)-10,13-dimethylhexadecahydro-1H-cyclopenta[a]phenanthren-3-yl)oxy)-3-(4-nitrobenzamido)-4-oxobutanoic acid] returned a melting point of 52 to 53 °C. Also, in data set [1], the “selectivity ratio ST3GALI/ST6GALI” value is reported as greater than 94 and the IC50 (usually the concentration needed to halve the response being measured) was 5.35 ± 0.46 µM. Moreover, the inhibition at 500 µM in data set [2] was 0%.

As to `COc1ccc2c(CC(=O)N[C@@H](CC(=O)O)C(=O)O[C@@H]3CC[C@@]4(C)[C@H](CC[C@@H]5[C@@H]4CC[C@]4(C)C([C@H](C)CCC(=O)OCCOCCOCCOCCOCCN=[N+]=[N-])CC[C@@H]54)C3)cc(=O)oc2c1` (stereo partly drawn) [Compound 15, (3S)-4-(((3R,5R,8R,9S,10S,13R,14S)-17-((R)-1-azido-16-oxo-3,6,9,12,15-pentaoxaicosan-19-yl)-10,13-dimethylhexadecahydro-1H-cyclopenta[a]phenanthren-3-yl)oxy)-3-(2-(7-methoxy-2-oxo-2H-chromen-4-yl)acetamido)-4-oxobutanoic acid], the melting point fell in the range of 113 to 114 °C. In data set [1], the “selectivity ratio ST3GALI/ST6GALI” value was greater than 88 and half-maximal inhibition (IC50) was put at 5.69 ± 0.4 µM. Further, the inhibition at 500 µM in data set [2] is 0%.

In turn, `COc1ccc2c(CC(=O)N[C@@H](CC(=O)O)C(=O)O[C@@H]3CC[C@@]4(C)[C@H](CC[C@@H]5[C@@H]4CC[C@]4(C)C([C@H](C)CCC(=O)OCCOCCOCCN=[N+]=[N-])CC[C@@H]54)C3)cc(=O)oc2c1` (stereo partly drawn) [Compound 13, (3S)-4-(((3R,5R,8R,9S,10S,10S,3R,14S)-17-((R)-5-(2-(2-(2-azidoethoxy)ethoxy)ethoxy)-5-oxopentan-2-yl)-10,13-dimethylhexadecahydro-1H-cyclopenta[a]phenanthren-3-yl)oxy)-3-(2-(7-methoxy-2-oxo-2H-chromen-4-yl)acetamido)-4-oxo butanoic acid] returned a melting point of 134 to 135 °C. In data set [1], the “selectivity ratio ST3GALI/ST6GALI” value is greater than 109 and inhibition was half-maximal at 4.61 ± 0.35 µM (IC50). For the same molecule, in data set [2], the inhibition at 500 µM is 0%.

Turning to `COc1ccc2c(CC(=O)N[C@@H](CC(=O)O)C(=O)O[C@@H]3CC[C@@]4(C)[C@H](CC[C@@H]5[C@@H]4CC[C@]4(C)C([C@H](C)CCC(=O)OCCOCCN=[N+]=[N-])CC[C@@H]54)C3)cc(=O)oc2c1` (stereo partly drawn) [Compound 12, (3S)-4-(((3R,5R,8R,9S,10S,13R,14S)-17-((R)-5-(2-(2-azidoethoxy)ethoxy)-5-oxopentan-2-yl)-10,13-dimethylhexadecahydro-1H-cyclopenta[a]phenanthren-3-yl)oxy)-3-(2-(7-methoxy-2-oxo-2H-chromen-4-yl)acetamido)-4-oxobutanoic acid], the melting point was 142 to 143 °C. Further, in data set [1], the “selectivity ratio ST3GALI/ST6GALI” value is given as greater than 97 and inhibition was half-maximal at 5.14 ± 0.11 µM (IC50). In addition, the inhibition at 500 µM in data set [2] was determined as 0%.

Consider `C[C@H](CCC(=O)OCCN=[N+]=[N-])C1CC[C@H]2[C@@H]3CC[C@@H]4C[C@H](OC(=O)[C@H](CC(=O)O)Nc5ccc([N+](=O)[O-])c6nonc56)CC[C@]4(C)[C@H]3CC[C@]12C` (stereo partly drawn) [Compound 1, (3S)-4-(((3R,5R,8R,9S,10S,13R,14S)-17-((R)-5-(2-azidoethoxy)-5-oxopentan-2-yl)-10,13-dimethylhexadecahydro-1H-cyclopenta[a]phenanthren-3-yl)oxy)-3-((7-nitrobenzo[c][1,2,5]oxadiazol-4-yl)amino)-4-oxobutanoic acid], for which the melting point fell in the range of 78 to 79 °C. Also, the 50% inhibitory concentration (IC50) in data set [1] is 4.2 µM and 4.33 µM. The inhibition at 500 µM in data set [2] came out at 0%. In addition, the inhibition at 1000 µM in data set [2] (measured at 1 mM) is 74%. Moreover, the IC50 in data set [3] was 0.8 µM and 0.77 µM.

As for `COc1ccc2c(CC(=O)N[C@@H](CC(=O)O)C(=O)O[C@@H]3CC[C@@]4(C)[C@H](CC[C@@H]5[C@@H]4CC[C@]4(C)C([C@H](C)CCC(=O)OCCN=[N+]=[N-])CC[C@@H]54)C3)cc(=O)oc2c1` (stereo partly drawn) [Compound 11, (3S)-4-(((3R,5R,8R,9S,10 S,13R,14S)-17-((R)-5-(2-azidoethoxy)-5-oxopentan-2-yl)-10,13-dimethylhexadecahydro-1H-cyclopenta[a]phenanthren-3-yl)oxy)-3-(2-(7-methoxy-2-oxo-2H-chromen-4-yl)acetamido)-4-oxobutanoic acid], the melting point lay in the range of 151 to 152 °C. Besides, in data set [1], the “selectivity ratio ST3GALI/ST6GALI” value is reported as greater than 89 and half-maximal inhibition (IC50) required 5.59 ± 0.24 µM. In data set [2], the inhibition at 500 µM stood at 0%.

`COc1ccc2c(CC(=O)N[C@@H](CC(=O)O)C(=O)O[C@@H]3CC[C@@]4(C)[C@H](CC[C@@H]5[C@@H]4CC[C@]4(C)C([C@H](C)CCC(=O)OCCOCCOCCOCCN=[N+]=[N-])CC[C@@H]54)C3)cc(=O)oc2c1` (stereo partly drawn) [Compound 14, (3S)-4-(((3R,5R,8R,9S,10S,13R,14S)-17-((R)-1-azido-13-oxo-3,6,9,12-tetraoxaheptadecan-16-yl)-10,13-dimethylhexadecahydro-1H-cyclopenta[a]phenanthren-3-yl)oxy)-3-(2-(7-methoxy-2-oxo-2H-chromen-4-yl)acetamido)-4-oxobutanoic acid] yielded a melting point of 126 to 127 °C. In data set [1], the “selectivity ratio ST3GALI/ST6GALI” value is greater than 101 and 4.95 ± 0.37 µM corresponded to half-maximal inhibition (IC50). Besides, in data set [2], the inhibition at 500 µM was found to be 0%.
